According to publication PMC12361428 (Nature Communications, 2025):
Residue numbers refer to the chain shown, from its start. “And” between values parts separate entries of the source, which are not always exact repeats. Identical values can stand only once.

Columns and labels:
Nluc-A3AR H95F^3.37 = biological target: T1, Nluc-A3AR H95F^3.37 (Homo sapiens, UniProt P0DMS8, H95F); assay: biochemical; type: binding; details: H95F; log[adenosine] -8; read-out: normalised XAC-630 binding
T1 construct: expressed in transfected cells; host or cells: HEK293a
T1 sequence (P0DMS8 whole entry H95F): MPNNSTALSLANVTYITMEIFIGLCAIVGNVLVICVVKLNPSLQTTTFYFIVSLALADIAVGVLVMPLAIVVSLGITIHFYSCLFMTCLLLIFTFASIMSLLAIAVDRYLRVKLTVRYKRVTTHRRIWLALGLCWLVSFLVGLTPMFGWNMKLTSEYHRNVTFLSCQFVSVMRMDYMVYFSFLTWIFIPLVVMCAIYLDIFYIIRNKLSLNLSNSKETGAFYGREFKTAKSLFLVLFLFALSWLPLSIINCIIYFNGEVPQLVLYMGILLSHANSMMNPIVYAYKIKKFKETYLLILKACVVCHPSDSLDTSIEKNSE
Method: (§1) All experiments were performed in duplicate.
(§2) Data were expressed as the mean ± standard error. All binding and Trupath data were analysed using the nonlinear regression curve-fitting programme with Prism 10 (GraphPad, San Diego, CA, USA). For nanoBRET saturation binding experiments, specific binding was calculated by subtracting non-specific binding (defined as binding in the presence of 10 µM MRS1220) from total binding. Specific binding data in each experiment were then normalised to the maximal binding (Bmax) of WT and fit to a one-site specific binding equation: Y =Bmax*[X]/(Kd + [X]). For nanoBRET competition binding experiments, data were normalised to total and non-specific binding responses and fit to a one-site—Fit Ki equation. Trupath's experimental data was baseline-corrected to the initial four baseline reads and then adjusted to the buffer control response. The area under the curve (AUC) for each response was calculated and plotted with a non-linear regression curve (log[agonist] vs response, three-parameter model), using the equation: Y = Bottom + (Top–Bottom)/(1 + 10^((LogEC50-X))). Here, X represents the log dose of the agonist, Y is the BRET2 AUC response, Top and Bottom are the curve plateaus, and EC50 is the agonist concentration yielding a response halfway between the Bottom and Top values. […] Significant differences vs WT were determined by one-way ANOVA with a Dunnett’s multiple comparison test. Significance levels are indicated as follows: P ≤ 0.0001****, P = 0.0001–0.001***, P = 0.001–0.01**, and P = 0.01–0.05*.

Nluc-A3AR T94A^3.36 = biological target: T2, Nluc-A3AR T94A^3.36 (Homo sapiens, UniProt P0DMS8, T94A); assay: biochemical; type: binding; details: T94A, read-out: normalised XAC-630 binding
T2 construct: expressed in transfected cells; host or cells: HEK293a
T2 sequence (P0DMS8 whole entry T94A): as the sequence (P0DMS8 whole entry H95F) above, with T94A, F95H counted along it
Method: as §1
(§3) Data were expressed as the mean ± standard error. All binding and Trupath data were analysed using the nonlinear regression curve-fitting programme with Prism 10 (GraphPad, San Diego, CA, USA). For nanoBRET saturation binding experiments, specific binding was calculated by subtracting non-specific binding (defined as binding in the presence of 10 µM MRS1220) from total binding. Specific binding data in each experiment were then normalised to the maximal binding (Bmax) of WT and fit to a one-site specific binding equation: Y =Bmax*[X]/(Kd + [X]). For nanoBRET competition binding experiments, data were normalised to total and non-specific binding responses and fit to a one-site—Fit Ki equation. Trupath's experimental data was baseline-corrected to the initial four baseline reads and then adjusted to the buffer control response. The area under the curve (AUC) for each response was calculated and plotted with a non-linear regression curve (log[agonist] vs response, three-parameter model), using the equation: Y = Bottom + (Top–Bottom)/(1 + 10^((LogEC50-X))). Here, X represents the log dose of the agonist, Y is the BRET2 AUC response, Top and Bottom are the curve plateaus, and EC50 is the agonist concentration yielding a response halfway between the Bottom and Top values. […] The efficacy of the agonists (τA) was separately calculated using the Black–Leff operational model of agonism[79] using KA values from Table 2 and then corrected for receptor expression relative to WT using Bmax values from Table 1[80]. Significant differences vs WT were determined by one-way ANOVA with a Dunnett’s multiple comparison test.

A3AR V169E^45.53 = biological target: T3, A3AR V169E^45.53 (Homo sapiens, UniProt P0DMS8, V169E); assay: Gαi1 activation, TruPath BRET assay in HEK293a cells; type: cell-based
T3 construct: expressed in transfected cells; host or cells: HEK293a
T3 sequence (P0DMS8 whole entry V169E): as the sequence (P0DMS8 whole entry H95F) above, with F95H, V169E counted along it
Method: (§4) Two days post-transfection, plates were washed twice with BRET buffer (HBSS with 10 mM HEPES, pH 7.4). After a 30-min incubation at 37 °C, plates were placed in a PHERAstar plate reader at 37 °C, and four baseline readings were taken using BRET2 filters at 410 ± 80 nm and 515 ± 30 nm. […] BRET2 ratios were calculated as the ratio of GFP2 emission (515 ± 30 nm) to RLuc8 emission (410 ± 80 nm).
(§5) Data were expressed as the mean ± standard error. All binding and Trupath data were analysed using the nonlinear regression curve-fitting programme with Prism 10 (GraphPad, San Diego, CA, USA). […] Trupath's experimental data was baseline-corrected to the initial four baseline reads and then adjusted to the buffer control response. The area under the curve (AUC) for each response was calculated and plotted with a non-linear regression curve (log[agonist] vs response, three-parameter model), using the equation: Y = Bottom + (Top–Bottom)/(1 + 10^((LogEC50-X))). Here, X represents the log dose of the agonist, Y is the BRET2 AUC response, Top and Bottom are the curve plateaus, and EC50 is the agonist concentration yielding a response halfway between the Bottom and Top values. […] Significant differences vs WT were determined by one-way ANOVA with a Dunnett’s multiple comparison test.

A3AR M174A^5.35 = biological target: T4, A3AR M174A^5.35 (Homo sapiens, UniProt P0DMS8, M174A); assay: as above; type: cell-based
T4 construct: expressed in transfected cells; host or cells: HEK293a
T4 sequence (P0DMS8 whole entry M174A): as the sequence (P0DMS8 whole entry H95F) above, with F95H, M174A counted along it
Method: as §4, §5

Nluc-A3AR M174A^5.35 = biological target: T5, Nluc-A3AR M174A^5.35 (Homo sapiens, UniProt P0DMS8, M174A); assay: biochemical; type: binding; details: M174A, read-out: normalised XAC-630 binding
T5 construct: expressed in transfected cells; host or cells: HEK293a
T5 sequence (P0DMS8 whole entry M174A): as the sequence (P0DMS8 whole entry H95F) above, with F95H, M174A counted along it
Method: as §1, §3

A3AR Y15A^1.35 = biological target: T6, A3AR Y15A^1.35 (Homo sapiens, UniProt P0DMS8, Y15A); assay: Gαi1 activation, TruPath BRET assay in HEK293a cells; type: cell-based
T6 construct: expressed in transfected cells; host or cells: HEK293a
T6 sequence (P0DMS8 1-318 Y15A): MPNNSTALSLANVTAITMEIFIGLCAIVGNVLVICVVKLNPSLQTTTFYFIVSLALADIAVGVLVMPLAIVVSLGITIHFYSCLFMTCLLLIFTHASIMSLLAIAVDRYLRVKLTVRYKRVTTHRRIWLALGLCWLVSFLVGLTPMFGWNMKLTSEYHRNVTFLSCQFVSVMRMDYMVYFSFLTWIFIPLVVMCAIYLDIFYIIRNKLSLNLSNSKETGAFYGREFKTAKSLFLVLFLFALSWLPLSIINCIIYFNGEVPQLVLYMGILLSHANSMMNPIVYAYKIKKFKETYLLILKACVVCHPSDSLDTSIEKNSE
Method: (§6) PEI was added at a 6:1 PEI-to-DNA ratio. Two days post-transfection, plates were washed twice with BRET buffer (HBSS with 10 mM HEPES, pH 7.4). After a 30-min incubation at 37 °C, plates were placed in a PHERAstar plate reader at 37 °C, and four baseline readings were taken using BRET2 filters at 410 ± 80 nm and 515 ± 30 nm. […] BRET2 ratios were calculated as the ratio of GFP2 emission (515 ± 30 nm) to RLuc8 emission (410 ± 80 nm).
(§7) Data were expressed as the mean ± standard error. All binding and Trupath data were analysed using the nonlinear regression curve-fitting programme with Prism 10 (GraphPad, San Diego, CA, USA). For nanoBRET saturation binding experiments, specific binding was calculated by subtracting non-specific binding (defined as binding in the presence of 10 µM MRS1220) from total binding. Specific binding data in each experiment were then normalised to the maximal binding (Bmax) of WT and fit to a one-site specific binding equation: Y =Bmax*[X]/(Kd + [X]). For nanoBRET competition binding experiments, data were normalised to total and non-specific binding responses and fit to a one-site—Fit Ki equation. Trupath's experimental data was baseline-corrected to the initial four baseline reads and then adjusted to the buffer control response. The area under the curve (AUC) for each response was calculated and plotted with a non-linear regression curve (log[agonist] vs response, three-parameter model), using the equation: Y = Bottom + (Top–Bottom)/(1 + 10^((LogEC50-X))). Here, X represents the log dose of the agonist, Y is the BRET2 AUC response, Top and Bottom are the curve plateaus, and EC50 is the agonist concentration yielding a response halfway between the Bottom and Top values. To determine efficacy values. The efficacy of the agonists (τA) was separately calculated using the Black–Leff operational model of agonism[79] using KA values from Table 2 and then corrected for receptor expression relative to WT using Bmax values from Table 1[80]. Significant differences vs WT were determined by one-way ANOVA with a Dunnett’s multiple comparison test. Significance levels are indicated as follows: P ≤ 0.0001****, P = 0.0001–0.001***, P = 0.001–0.01**, and P = 0.01–0.05*.

A3AR S73A^2.65 = biological target: T7, A3AR S73A^2.65 (Homo sapiens, UniProt P0DMS8, S73A); assay: as above; type: cell-based
T7 construct: expressed in transfected cells; host or cells: HEK293a
T7 sequence (P0DMS8 whole entry S73A): as the sequence (P0DMS8 whole entry H95F) above, with S73A, F95H counted along it
Method: as §4, §5

Nluc-A3AR H95A^3.37 = biological target: T8, Nluc-A3AR H95A^3.37 (Homo sapiens, UniProt P0DMS8, H95A); assay: biochemical; type: binding; details: H95A, read-out: normalised XAC-630 binding
T8 construct: expressed in transfected cells; host or cells: HEK293a
T8 sequence (P0DMS8 whole entry H95A): as the sequence (P0DMS8 whole entry H95F) above, with F95A counted along it
Method: as §1, §2

Nluc-A3AR Y265A^7.36 = biological target: T9, Nluc-A3AR Y265A^7.36 (Homo sapiens, UniProt P0DMS8, Y265A); assay: biochemical; type: binding; details: Y265A, read-out: normalised XAC-630 binding
T9 construct: expressed in transfected cells; host or cells: HEK293a
T9 sequence (P0DMS8 whole entry Y265A): as the sequence (P0DMS8 whole entry H95F) above, with F95H, Y265A counted along it
Method: as §1, §3

Nluc-A3AR S73A^2.65 = biological target: T10, Nluc-A3AR S73A^2.65 (Homo sapiens, UniProt P0DMS8, S73A); assay: biochemical; type: binding; details: S73A, read-out: normalised XAC-630 binding
T10 construct: expressed in transfected cells; host or cells: HEK293a
T10 sequence (P0DMS8 whole entry S73A): as the sequence (P0DMS8 whole entry H95F) above, with S73A, F95H counted along it
Method: as §1
(§8) Data were expressed as the mean ± standard error. All binding and Trupath data were analysed using the nonlinear regression curve-fitting programme with Prism 10 (GraphPad, San Diego, CA, USA). For nanoBRET saturation binding experiments, specific binding was calculated by subtracting non-specific binding (defined as binding in the presence of 10 µM MRS1220) from total binding. Specific binding data in each experiment were then normalised to the maximal binding (Bmax) of WT and fit to a one-site specific binding equation: Y =Bmax*[X]/(Kd + [X]). For nanoBRET competition binding experiments, data were normalised to total and non-specific binding responses and fit to a one-site—Fit Ki equation. […] Significant differences vs WT were determined by one-way ANOVA with a Dunnett’s multiple comparison test.

A3AR S271A^7.42 = A3AR S271A^7.42 (Homo sapiens, UniProt P0DMS8, S271A); assay: Gαi1 activation, TruPath BRET assay in HEK293a cells
Chain of A3AR S271A^7.42 (P0DMS8 whole entry S271A): as the sequence (P0DMS8 whole entry H95F) above, with F95H, S271A counted along it
Method: as §4, §5

Nluc-A3AR S271A^7.42 = biological target: T11, Nluc-A3AR S271A^7.42 (Homo sapiens, UniProt P0DMS8, S271A); assay: biochemical; type: binding; details: S271A, read-out: normalised XAC-630 binding
T11 construct: expressed in transfected cells; host or cells: HEK293a
T11 sequence (P0DMS8 whole entry S271A): as the sequence (P0DMS8 whole entry H95F) above, with F95H, S271A counted along it
Method: as §1, §8

Nluc-A3AR Y15A^1.35 = biological target: T12, Nluc-A3AR Y15A^1.35 (Homo sapiens, UniProt P0DMS8, Y15A); assay: biochemical; type: binding; details: Y15A; log[adenosine] -8; read-out: normalised XAC-630 binding
T12 construct: expressed in transfected cells; host or cells: HEK293a
Method: as §1, §3

Nluc-A3AR V169E^45.53 = biological target: T13, Nluc-A3AR V169E^45.53 (Homo sapiens, UniProt P0DMS8, V169E); assay: biochemical; type: binding; details: V169E, read-out: normalised XAC-630 binding
T13 construct: expressed in transfected cells; host or cells: HEK293a
T13 sequence (P0DMS8 whole entry V169E): as the sequence (P0DMS8 whole entry H95F) above, with F95H, V169E counted along it
Method: as §1, §2

Nluc-A3AR WT = biological target: T14, Nluc-A3AR WT (Homo sapiens, UniProt P0DMS8); assay: biochemical; type: binding; details: WT, read-out: normalised XAC-630 binding
T14 construct: expressed in transfected cells; host or cells: HEK293a
T14 sequence (P0DMS8 whole entry): as the sequence (P0DMS8 whole entry H95F) above, with F95H counted along it
Method: as §1, §8

A3AR H272A^7.43 = biological target: T15, A3AR H272A^7.43 (Homo sapiens, UniProt P0DMS8, H272A); assay: Gαi1 activation, TruPath BRET assay in HEK293a cells; type: cell-based
T15 construct: expressed in transfected cells; host or cells: HEK293a
T15 sequence (P0DMS8 1-318 H272A): T6 sequence (P0DMS8 1-318 Y15A) with A15Y, H272A
Method: as §6, §7

Nc1ncnc2c1ncn2[C@@H]1O[C@H](CO)[C@@H](O)[C@H]1O [Adenosine, adenosine]
remaining activity at 0.01 µM (Nluc-A3AR H95F^3.37): 100% | remaining activity at 1 µM (Nluc-A3AR T94A^3.36; log[adenosine] -6): 100% | remaining activity at 0.1 µM (Nluc-A3AR T94A^3.36; log[adenosine] -7): 103% | remaining activity at 0.01 µM (Nluc-A3AR T94A^3.36; log[adenosine] -8): 100% | log τ (efficacy, operational model, corrected for receptor expression) (A3AR V169E^45.53): 1.6 ± 0.1 | ∆∆BRET Emax (A3AR V169E^45.53): 0.67 ± 0.02 | log τ (efficacy, operational model, corrected for receptor expression) (A3AR M174A^5.35): -0.1 ± 0.2 | ∆∆BRET Emax (A3AR M174A^5.35): 1.35 ± 0.01 | remaining activity at 1 µM (Nluc-A3AR M174A^5.35; log[adenosine] -6): 100% | remaining activity at 0.01 µM (Nluc-A3AR M174A^5.35; log[adenosine] -8): 101% | log τ (efficacy, operational model, corrected for receptor expression) (A3AR Y15A^1.35): 0.6 ± 0.3 | ∆∆BRET Emax (A3AR Y15A^1.35): 0.19 ± 0.02 | Gαi1 activation response (Figure 7F), individual replicates (A3AR Y15A^1.35; log [agonist] -3): 0.171 and 0.1858 and 0.1817 | Gαi1 activation response (Figure 7F), individual replicates (A3AR Y15A^1.35; log [agonist] -4): 0.1266 and 0.1086 and 0.09084 | Gαi1 activation response (Figure 7F), individual replicates (A3AR Y15A^1.35; log [agonist] -5): 0.08727 and 0.0349 and 0.02463 | Gαi1 activation response (Figure 7F), individual replicates (A3AR Y15A^1.35; log [agonist] -6): 0.02891 and 0.02444 and 0.02972 | Gαi1 activation response (Figure 7F), individual replicates (A3AR Y15A^1.35; log [agonist] -7): 0.01513 and 0.03836 and 0.02349 | Gαi1 activation response (Figure 7F), individual replicates (A3AR Y15A^1.35; log [agonist] -8): 0.0199 and 0.02219 and 0.02387 | Gαi1 activation response (Figure 7F), individual replicates (A3AR Y15A^1.35; log [agonist] -9): 0.02702 and 0.04406 and 0.02415 | log τ (efficacy, operational model, corrected for receptor expression) (A3AR S73A^2.65): 1.4 ± 0.07 | ∆∆BRET Emax (A3AR S73A^2.65): 1.49 ± 0.04 | remaining activity at 1000 µM (Nluc-A3AR H95A^3.37; log[adenosine] -3): 24% | remaining activity at 100 µM (Nluc-A3AR H95A^3.37; log[adenosine] -4): 82.5% | remaining activity at 10 µM (Nluc-A3AR H95A^3.37; log[adenosine] -5): 97.8% | remaining activity at 1 µM (Nluc-A3AR H95A^3.37; log[adenosine] -6): 105% | remaining activity at 0.1 µM (Nluc-A3AR H95A^3.37; log[adenosine] -7): 95.8% | remaining activity at 0.01 µM (Nluc-A3AR H95A^3.37; log[adenosine] -8): 100% | remaining activity at 100 µM (Nluc-A3AR Y265A^7.36; log[adenosine] -4): 69.6% | remaining activity at 10 µM (Nluc-A3AR Y265A^7.36; log[adenosine] -5): 94.1% | remaining activity at 1 µM (Nluc-A3AR Y265A^7.36; log[adenosine] -6): 97.4% | remaining activity at 0.1 µM (Nluc-A3AR Y265A^7.36; log[adenosine] -7): 99.2% | remaining activity at 0.01 µM (Nluc-A3AR Y265A^7.36; log[adenosine] -8): 100% | remaining activity at 10 µM (Nluc-A3AR S73A^2.65; log[adenosine] -5): 82.6% | remaining activity at 1 µM (Nluc-A3AR S73A^2.65; log[adenosine] -6): 100% | remaining activity at 0.1 µM (Nluc-A3AR S73A^2.65; log[adenosine] -7): 100% | remaining activity at 0.01 µM (Nluc-A3AR S73A^2.65; log[adenosine] -8): 100% | ∆∆BRET Emax (A3AR S271A^7.42): 0.70 ± 0.15 | remaining activity at 1000 µM (Nluc-A3AR S271A^7.42; log[adenosine] -3): 90.4% | remaining activity at 100 µM (Nluc-A3AR S271A^7.42; log[adenosine] -4): 102% | remaining activity at 10 µM (Nluc-A3AR S271A^7.42; log[adenosine] -5): 100% | remaining activity at 1 µM (Nluc-A3AR S271A^7.42; log[adenosine] -6): 104% | remaining activity at 0.1 µM (Nluc-A3AR S271A^7.42; log[adenosine] -7): 105% | remaining activity at 0.01 µM (Nluc-A3AR S271A^7.42; log[adenosine] -8): 100% | remaining activity at 0.01 µM (Nluc-A3AR Y15A^1.35): 100% | remaining activity at 100 µM (Nluc-A3AR V169E^45.53; log[adenosine] -4): 37.3% | remaining activity at 10 µM (Nluc-A3AR V169E^45.53; log[adenosine] -5): 78.7% | remaining activity at 1 µM (Nluc-A3AR V169E^45.53; log[adenosine] -6): 98% | remaining activity at 0.1 µM (Nluc-A3AR V169E^45.53; log[adenosine] -7): 95.5% | remaining activity at 0.01 µM (Nluc-A3AR V169E^45.53; log[adenosine] -8): 100% | remaining activity at 1 µM (Nluc-A3AR WT; log[adenosine] -6): 103% | remaining activity at 0.1 µM (Nluc-A3AR WT; log[adenosine] -7): 102% | remaining activity at 0.01 µM (Nluc-A3AR WT; log[adenosine] -8): 100% | log τ (efficacy, operational model, corrected for receptor expression) (A3AR H272A^7.43): N.R. | ∆∆BRET Emax (A3AR H272A^7.43): N.R | Gαi1 activation response (Figure 7F), individual replicates (A3AR H272A^7.43; log [agonist] -3): 0.105 and 0.09941 | Gαi1 activation response (Figure 7F), individual replicates (A3AR H272A^7.43; log [agonist] -4): 0.06736 and 0.02567 and 0.03084 | Gαi1 activation response (Figure 7F), individual replicates (A3AR H272A^7.43; log [agonist] -5): 0.05631 and 0.02851 and 0.01939 | Gαi1 activation response (Figure 7F), individual replicates (A3AR H272A^7.43; log [agonist] -6): 0.03915 and 0.06464 and 0.04347 | Gαi1 activation response (Figure 7F), individual replicates (A3AR H272A^7.43; log [agonist] -7): 0.04202 and 0.01796 and 0.03024 | Gαi1 activation response (Figure 7F), individual replicates (A3AR H272A^7.43; log [agonist] -8): 0.03672 and 0.03614 and 0.07396 | Gαi1 activation response (Figure 7F), individual replicates (A3AR H272A^7.43; log [agonist] -9): 0.03473 and 0.04344 and 0.05169
